From patent US11198900B2, “Nucleic acid-based linkers for detecting and measuring interactions” (Children's Medical Center Corporation, priority 2014, dated 2021)

Tests used:
[1] = tested on: disulfide bond (var 4-S-S-var 8); assay: DNA nanoswitch disulfide bond reduction; details: 10 μM TCEP, room temperature (25° C.)
Experimental: This construct was created in 3 steps. 1) Var 4 and a truncated version of var 8 with a 3′ and a 5′ thiol respectively, were reduced in 50 mM TCEP (BondBreaker Thermo Scientific). 2) These two oligonucleotides were linked by a disulfide. 3) The disulfide-bridged oligonucleotides were hybridized onto the DNA nanoswitch. • 1) To reduce the thiols on the oligonucleotides they were incubated in 50 mM TCEP for 1 hour at RT. • 2) Equal volumes of the two oligonucleotide-TCEP mixtures were then combined. The TCEP was removed using a QIAGEN nucleotide-removal kit. The oligonucleotides were then allowed to form disulfides in the absence of reducing agent in PBS for 1 hour before running the products on a precast 4-20% gradient polyacrylamide TBE gel. As the oligonucleotides were different sizes (60 and 30 nt) the appropriate hetero dimer could be easily identified and purified using electroelution as previously described^5. • 3) The var 4-S-S-var 8 was used instead of the normal var 4 and var 8. This was annealed onto the linear M13 backbone at a 1:1 ratio and was added along with the other oligonucleotides at the beginning of the annealing. This yielded loops with a disulfide bridging variable regions 4 and 8.
With these loops in hand we could observe loop opening as a result of TCEP reduction of the disulfide bond. […]

streptavidin [2] = target: T1, streptavidin (Streptomyces avidinii, UniProt P22629); assay: DNA nanoswitch gel electrophoresis, biotin-streptavidin on-rate and off-rate (Example 3); assay type: binding
T1 construct: purchased Rockland
Experimental: This construct used biotinylated versions of two oligonucleotides (var 4 and var 8), which were used in 4× molar excess to the scaffold, while all other oligonucleotides were used in a 10× molar excess. […] The final DNA construct was then diluted 100× from its original concentration of ˜16 nM (to 160 pM), and mixed in equal volumes with streptavidin (Rockland) at 6 nM nominal concentration to form the loops, yielding final nominal concentrations of ˜80 pM and 3 nM, respectively.
The 25° C. experiment was performed at room temperature, the 4° C. experiment was performed in a cold room, and the 37° C. and 50° C. experiments were performed using a thermal cycler. […] Actual concentrations used to determine the on-rates were measured using spectrophotometry and a HABA assay to determine streptavidin activity.
Off-rate measurements were performed by forming looped construct as described above, and letting the solution sit for at least 24 hours to allow the system to reach equilibrium. […] The 4° C. condition was done in a refrigerator, the 25° C. sample was done in a water bath, and the 37° C. and 50° C. temperatures were done in a thermal cycler. To run all the samples on a single gel, the quenching times were determined relative to the predetermined gel running time.
The amount of material in each gel band was quantified by analyzing the scanned gel images with the gel analysis tool in the freely available ImageJ software package. Using rectangular regions of interest that just capture the width of the gel bands, this toolbox produces intensity profiles whose area can be measured to quantify the total brightness in each band. We applied the same rectangular window size to each lane within a single gel. In many gels the highest molecular weight band of the added ladder was used as a normalizing reference lane. This relaxed the constraints of pipetting perfectly across all lanes. • 2) All multistate (with 5 bands) gels were analyzed as follows
Error bars were produced based on this analysis, and all fitting procedures used an error weighted least squares fit.
The time evolution of DNA nanoswitch states are modeled using multistep reaction kinetics. On rates are modeled as a two-step process: Unbound Linear→Singly Bound Linear→Looped
Step 1 represents the binding of a free receptor in solution to a ligand on the scaffold (yielding the solution on-rate), Step 2 represents the subsequent binding of this receptor to another ligand on the same scaffold to form a loop (yielding the loop-closure rate).
We additionally used Eyring analysis to fit the temperature dependence of the kinetic rates: […]

Neutravidin = Neutravidin (Gallus gallus, UniProt P02701); assay: DNA nanoswitch gel electrophoresis, biotin with avidin and Neutravidin; assay type: binding; details: relative to avidin
Experimental: Preparations with avidin and neutravidin were prepared in the same way, but protein concentrations were sometimes altered to enable on-rate measurements over a similar time scale as the streptavidin experiments.

streptavidin [3] = target: T1, streptavidin; assay: DNA nanoswitch gel electrophoresis, biotin-streptavidin kinetics (Example 2, FIG. 7 and 8); assay type: binding; details: for dissociation time: 150 mM physiological salt
Description: FIG. 7. […] (A) The DNA nanoswitch has two distinct states, depending on the binding of a receptor-ligand pair, that can be distinguished by gel electrophoresis, (B) In the presence of excess ligand, a nanoswitch in the bound state will become trapped in the unbound state upon dissociation. […] The amount of looped construct is quantified from the gel to determine the kinetics of dissociation.
FIG. 7D, for example, illustrates the formation of looped constructs having two biotins in the presence of streptavidin (t=0).
Linkers were designed according to protocols for long (2580 bp) and short (600 bp) loops as described herein. […] All other oligos were the same as those used previously. Briefly, looped constructs were made by mixing a long single-stranded DNA (M13mp18, in this case) with over 121 oligos that are complementary along its length. […] The constructs come together by self-assembly with a temperature ramp heating and cooling them.
Recognizing that the nanoswitch conformation informs the receptor-ligand binding state (bound or unbound), and that the conformation can be observed on a gel, an assay to measure bulk interaction kinetics was developed. The assay, conceptually shown in FIG. 7, proceeds as follows: 1) form a looped nucleic acid (DNA) construct that relies on a receptor and a ligand being bound to each other, 2) quench the interaction between the receptor and the ligand, for example, with excess receptor or ligand to prevent rebinding following dissociation, 3) monitor the relative amount of looped construct over time to measure kinetics.
Linear double-stranded DNA constructs 7249 base pairs (bp) in length were self-assembled by combining the single-stranded M13 bacteriophage genome with 121 complementary oligos. (See also Halvorsen K et al., 2011.). Two of the oligos were labeled with single biotins and placed 2580 bp from each other, such that interaction with streptavidin induced the formation of a 2580 bp loop in the structure. […] The entire array of 16 conditions with five time points each plus controls was then run on a single 96 lane agarose gel (FIG. 8).
The gel analysis tool in ImageJ was used to measure the integrated intensity of the band containing looped construct, and this quantity was normalized by the integrated intensity of a reference band in the same lane from a DNA ladder, which was added to the construct prior to starting experiments. Individual time constants for each experimental condition were determined by fitting a single exponential decay to the data using an error weighted least squares fitting.

streptavidin [4] = target: T1, streptavidin; assay: DNA nanoswitch gel electrophoresis, desthiobiotin-streptavidin off-rate; assay type: binding
Experimental: Desthiobiotin experiments were conducted in a similar manner as the biotin experiments with slight modifications. […] The off-rate of the desthiobiotin interaction is much faster than the typical 100 minute gel run time. Noting that once a loop opens in the gel, the reptation of the DNA prevents the loop from closing again, we ran samples for different amounts of time in the gel at 15 V/cm and 4° C., and quantified the fraction looped as a function of running time. In addition to allowing the determination of the desthiobiotin-streptavidin off rate, this gel also allowed us to determine the minimum amount of time required to achieve separation of the looped and unlooped bands in the gel. This enabled the use of the standard quenching technique for measuring desthiobiotin off-rates as described in the previous section; these gels were run at 15 V/cm for 10 minutes in pre-chilled electrophoresis buffer.

[5] = calculated from on-rate and off-rate

T1 sequence (P22629 25-183): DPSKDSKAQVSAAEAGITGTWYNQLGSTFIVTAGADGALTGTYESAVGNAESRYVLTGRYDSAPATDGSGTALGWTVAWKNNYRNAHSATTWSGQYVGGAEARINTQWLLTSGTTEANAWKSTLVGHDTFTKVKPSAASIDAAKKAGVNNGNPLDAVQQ
Sequence of Neutravidin (P02701 25-152): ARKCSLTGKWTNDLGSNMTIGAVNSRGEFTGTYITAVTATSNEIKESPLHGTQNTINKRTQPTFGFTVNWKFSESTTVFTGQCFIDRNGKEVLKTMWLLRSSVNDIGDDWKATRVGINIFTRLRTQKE

How did the “time constant of disulfide bond reduction” value [1] turn out when `O=C(O)CCP(CCC(=O)O)CCC(=O)O` [TCEP] was run?
The value was 2.6±0.4 weeks.

How did the on-rate (streptavidin [2]; 150 mM salt, room temperature) turn out when `O=C(O)CCCC[C@@H]1SC[C@@H]2NC(=O)N[C@@H]21` [biotin] was run?
The on-rate was 4.0±0.7×10^6 M^−1s^−1.

And the “variation of dissociation kinetics over temperature range” value (streptavidin [2]; 4-50° C.)?
Its value is ~1,000 fold.

And the “variation of dissociation kinetics over salt range” value (streptavidin [2]; 25-500 mM)?
Its value is “about 2 fold”.

And the “equilibrium enthalpy change, ΔH” value (streptavidin [2]; [5])?
The value was 26.01 ± 0.05 kcal/mol.

What about the “equilibrium free energy change, ΔG^0” value (streptavidin [2]; [5]) of the same compound?
The value was -17.1 ± 0.1 kcal/mol.

And the dissociation time (streptavidin [2]; physiological salt conditions, 25° C.)?
Its dissociation time is 9.7 ± 0.4 days.

What about the “affinity of Neutravidin for biotin, weaker than avidin's” value (Neutravidin) of the same compound?
The value was 20 times.

And the “change of off-rate with salt” value (streptavidin [3]; 5 mM to 500 mM at a given temperature)?
The value was “less than 2 fold”.

What about the dissociation time (streptavidin [3]; 25° C.) of the same compound?
The dissociation time was 148 ± 10 h.

What about the dissociation time (streptavidin [3]; 37° C.) of the same compound?
The dissociation time was 11.2 ± 3 h.

What about the “variation of off-rate with temperature” value (streptavidin [3]; 4° C. to 50° C. at a given salt concentration) of the same compound?
The value was “over 100 fold”.

And the “off-rates as fast as” value (streptavidin [3]; high temperature)?
Its value is 40 min.

With `C[C@@H]1NC(=O)N[C@@H]1CCCCCC(=O)O` [desthiobiotin] as the compound, how does the off-rate (streptavidin [4]; 4° C.) read?
The off-rate was 35.3 ± 7.5 min.

And the off-rate (streptavidin [4]; room temperature)?
Its off-rate is 8.6 ± 1.2 min.
